This note sets out measurements from US4971969A, “Pharmaceutical composition containing 1-(mono- or bis(trifluoromethyl)-2-pyridinyl)piperazines” (priority 1988, dated 1990).

Like-named read-outs stand apart in the source and are kept apart here.

The target in assay [1] is T1, 5HT1A receptors (Rattus norvegicus, UniProt P19327).
T1 construct: membranes of the rat hippocampus; from tissue; host or cells: rat hippocampus membranes
T1 sequence (P19327 1-422): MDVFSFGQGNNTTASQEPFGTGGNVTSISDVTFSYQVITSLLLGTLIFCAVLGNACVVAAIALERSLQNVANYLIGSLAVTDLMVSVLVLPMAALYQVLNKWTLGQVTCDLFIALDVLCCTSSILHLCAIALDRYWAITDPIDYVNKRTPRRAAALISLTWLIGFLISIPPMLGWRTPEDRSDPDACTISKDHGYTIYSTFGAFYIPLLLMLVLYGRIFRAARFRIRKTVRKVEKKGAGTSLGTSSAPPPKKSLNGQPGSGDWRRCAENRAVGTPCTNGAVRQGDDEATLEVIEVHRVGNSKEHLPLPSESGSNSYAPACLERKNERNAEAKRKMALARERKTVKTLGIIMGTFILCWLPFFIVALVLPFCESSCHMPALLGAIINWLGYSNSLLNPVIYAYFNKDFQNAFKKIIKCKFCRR
As to the kind of experiment: Binding test: displacement of [^3 H]-8-OH-DPAT from membranes of the rat hippocampus (5HT1A). Here is the method:
(§1) This test is carried out according to the protocol of PEROUTKA, S.J. ["Selective labelling of 5-HT1A and 5HT1B binding sites in bovine brain" BRAIN RESEARCH 344, p. 167-171 (1985)]. In this test, the affinity for 5HT1A receptors is determined by the Capacity of the compounds to displace [^3 H]-8-OH-DPAT from the membranes of the rat hippocampus; similarly, the affinity for 5HT1B receptors is determined by the capacity of the compounds to displace [^3 H]-5HT from the membranes of the rat striatum.
(§2) The results recorded in Table II below show the pKi values calculated according to the abovementioned protocol.

The target in assay [2] is T2, 5HT1B receptors (Rattus norvegicus, UniProt P28564).
T2 construct: membranes of the rat striatum; from tissue; host or cells: rat striatum membranes
As to the kind of experiment: Binding test: displacement of [^3 H]-5HT from membranes of the rat striatum (5HT1B). The protocol:
as §1, §2

Assay [3] has as its system 5HT1B. As to the kind of experiment: Penile erection test (5HT1B agonist potential). It is filed as in vivo. Conditions: rats; for minimal effective dose: Rattus norvegicus, sc, administered subcutaneously, read-out: ERECTION OF THE PENIS, minimum dose which leads to an erection of the penis, subcutaneous; for ERECTION OF THE PENIS, activity when administered orally: administered orally (PO). From the text: This test, carried out according to the protocol of BERENDSEN H.H.G. and BROEKKAMP C.L.E. ["Drug induced penile erections in rats: indication of serotonin 1B receptor mediation--EUROPEAN J. PHARMACOL. 135, 279-287 (1987")]enables the 5HT1B agonist potentials of the various compounds to be assessed.
The results recorded in Table II below show the minimum dose in mg.kg^-1 administered subcutaneously which leads to an erection of the penis in rats, as well as the activity when administered orally.

The mark [4] stands for this setting: rat hippocampus membranes, [^3 H]-8-OH-DPAT, read-out: BINDING pKi 5HT1A (converted).
Setting [5] is: rat striatum membranes, [^3 H]-5HT, read-out: BINDING pKi 5HT1B (converted).

T2 sequence (P28564 whole entry): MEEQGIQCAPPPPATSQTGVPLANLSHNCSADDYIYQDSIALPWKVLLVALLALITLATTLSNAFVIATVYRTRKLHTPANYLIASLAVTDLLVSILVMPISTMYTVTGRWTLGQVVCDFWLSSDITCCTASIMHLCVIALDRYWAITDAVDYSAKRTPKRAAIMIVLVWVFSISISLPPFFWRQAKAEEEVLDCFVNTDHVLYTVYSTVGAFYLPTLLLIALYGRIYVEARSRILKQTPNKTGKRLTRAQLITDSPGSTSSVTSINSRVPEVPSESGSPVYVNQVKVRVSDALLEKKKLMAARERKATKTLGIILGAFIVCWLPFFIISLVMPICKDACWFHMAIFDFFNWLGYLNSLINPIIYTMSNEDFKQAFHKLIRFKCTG

Regarding `FC(F)(F)c1ccc(N2CCNCC2)nc1` [Compound 1, 1-(5-trifluoromethyl-2-pyridinyl)piperazine], the Ki in assay [1] (setting [4]) was above 10000 nM. For the same compound, in assay [2] (setting [5]), the Ki is 501 nM. In assay [3], the minimal effective dose amounted to 1 mg/kg and the “ERECTION OF THE PENIS, activity when administered orally” value (“ERECTION OF THE PENIS, activity” for short) is above 46 mg/kg.

Regarding `FC(F)(F)c1ccnc(N2CCNCC2)c1` [Compound 2, 1-(4-trifluoromethyl-2-pyridinyl)piperazine], in assay [1] (setting [4]), the Ki was 2510 nM. Moreover, in assay [2] (setting [5]), the Ki is 126 nM. For the same compound, in assay [3], the minimal effective dose turned out to be 1 mg/kg and the “ERECTION OF THE PENIS, activity” value is 2.2 mg/kg.

Turning to `FC(F)(F)c1ccc(N2CCNCC2)nc1Cl` [Compound 3], the Ki in assay [1] is 2510 nM; in assay [2], 100 nM. The minimal effective dose in assay [3] stood at 0.46 mg/kg. Besides, the “ERECTION OF THE PENIS, activity” value in assay [3] was found to be 4.6 mg/kg.

Regarding `FC(F)(F)c1cnc(N2CCNCC2)cc1C(F)(F)F` [Compound 4, 1-[4,5-bis(trifluoromethyl)-2-pyridinyl]piperazine], in assay [1] (setting [4]), the Ki was 79400 nM. Also, the Ki in assay [2] (setting [5]) was 398 nM. In assay [3], the minimal effective dose stood at 10 mg/kg and the “ERECTION OF THE PENIS, activity” value came out at 2.2 mg/kg.

Take `FC(F)(F)c1cnc(N2CCNCC2)c(Cl)c1` [Compound 5, 1-(3-chloro-5-trifluoromethyl-2-pyridinyl)piperazine]: the Ki was 3980 nM in assay [1] (setting [4]) and 501 nM in assay [2] (setting [5]). Also, the minimal effective dose in assay [3] was found to be 4.6 mg/kg. Also, in assay [3], the “ERECTION OF THE PENIS, activity” value came out at 10 mg/kg.
